According to ChEMBL document CHEMBL5715945 (Cancer Biol Ther, 2010):
Active and inactive are the calls of the source. The calls are words filed in the database; no cut-off is given here.

Experiments:
4T1 [1] = experiment: Inhibition of cell adhesion to fibronectin in mouse 4T1 cells at 0.4 uM incubated for 4 hrs by […]; assay type: functional, cell-based
[2] = target: Focal adhesion kinase 1 (Mus musculus) (UniProt P34152); experiment: Inhibition of FAK phosphorylation at Tyr397 residue in mouse 4T1 cells harbouring mCherry red fluorescent protein at 0.1 to 1 uM incubated for 1 hr by immunoblotting analysis; assay type: cell-based; settings: dose 0.1-1 µM
Chain of Focal adhesion kinase 1 (Mus musculus) (P34152 whole entry): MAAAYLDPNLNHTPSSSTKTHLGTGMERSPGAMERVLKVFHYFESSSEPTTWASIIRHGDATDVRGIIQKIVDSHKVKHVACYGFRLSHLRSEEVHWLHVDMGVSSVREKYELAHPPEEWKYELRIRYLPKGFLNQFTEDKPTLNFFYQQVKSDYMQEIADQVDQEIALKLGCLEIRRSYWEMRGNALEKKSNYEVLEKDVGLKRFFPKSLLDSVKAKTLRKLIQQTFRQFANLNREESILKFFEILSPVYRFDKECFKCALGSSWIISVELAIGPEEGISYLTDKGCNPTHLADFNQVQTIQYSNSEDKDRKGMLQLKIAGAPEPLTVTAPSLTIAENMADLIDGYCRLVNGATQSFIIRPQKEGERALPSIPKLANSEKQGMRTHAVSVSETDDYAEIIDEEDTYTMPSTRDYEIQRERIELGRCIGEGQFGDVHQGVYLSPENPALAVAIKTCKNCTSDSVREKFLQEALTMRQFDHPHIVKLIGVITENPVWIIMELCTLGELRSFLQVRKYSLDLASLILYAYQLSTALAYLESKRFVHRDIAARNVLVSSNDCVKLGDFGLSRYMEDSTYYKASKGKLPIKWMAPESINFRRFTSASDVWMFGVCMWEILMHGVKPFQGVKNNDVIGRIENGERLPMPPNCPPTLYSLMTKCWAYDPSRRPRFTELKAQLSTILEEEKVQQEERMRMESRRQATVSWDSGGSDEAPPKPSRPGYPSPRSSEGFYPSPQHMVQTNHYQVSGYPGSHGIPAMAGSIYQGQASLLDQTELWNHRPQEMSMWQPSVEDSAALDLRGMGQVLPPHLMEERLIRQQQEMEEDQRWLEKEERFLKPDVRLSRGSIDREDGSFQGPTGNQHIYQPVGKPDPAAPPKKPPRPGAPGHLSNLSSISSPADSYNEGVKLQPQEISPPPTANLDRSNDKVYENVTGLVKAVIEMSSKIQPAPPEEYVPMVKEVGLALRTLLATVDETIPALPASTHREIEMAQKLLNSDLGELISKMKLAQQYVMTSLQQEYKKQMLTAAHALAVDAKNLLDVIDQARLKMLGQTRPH

4T1 [3] = experiment: Inhibition of Src phosphorylation at Tyr416 residue in mouse 4T1 cells harbouring mCherry red fluorescent protein incubated for 1 hr by immunoblotting analysis; assay type: cell-based; settings: dose 0.1-1 µM

How did the inhibition (4T1 [1]) turn out when Cc1nc(Nc2ncc(C(=O)Nc3c(C)cccc3Cl)s2)cc(N2CCN(CCO)CC2)n1 was run?
Its inhibition is “inactive”.

And the inhibition [2]?
Its inhibition is “inactive”.

What about the inhibition (4T1 [3]) of the same molecule?
Its inhibition is “Dose-Dependent Effect”.
